Test results published in publication PMC6403271, “Characterization, mechanism of action and optimization of activity of a novel peptide-peptoid hybrid against bacterial pathogens involved in canine skin infections” (Scientific Reports, 2019).
Square brackets hold non-standard residues; d marks the D form. Peptide text beside a SMILES is read from it. N(1-naphthylmethyl)Gly = O=C(O)CNCc1cccc2ccccc12; 1Nal = N[C@@H](Cc1cccc2ccccc12)C(=O)O; 2Nal = N[C@@H](Cc1ccc2ccccc2c1)C(=O)O; d1Nal = N[C@H](Cc1cccc2ccccc12)C(=O)O; d2Nal = N[C@H](Cc1ccc2ccccc2c1)C(=O)O; Nphe = O=C(O)CNCc1ccccc1; NBuGly = CCCCNCC(=O)O

What was measured:
MRSP C22963 = type: cell-based, Staphylococcus pseudintermedius; conditions: 18 h
Protocol: (§1) Activity of B1 was tested on 50P. aeruginosa isolates and 57S. pseudintermedius isolates (including 7 MRSP) that had been isolated in the diagnostic laboratory Sund Vet Diagnostik (University of Copenhagen) from various infections in dogs between 2009 and 2011. Representative MRSP (C22963), MSSA, and P. aeruginosa (26314) were used for testing the first set of B1 analogues.
(§2) MIC determination was performed by broth microdilution according to the Clinical and Laboratory Standard Institute (CLSI, M31-A3, 2008)[62]. In brief, each bacterial strain was diluted to concentration of 5 × 10^5 CFU/mL in Mueller Hinton broth II (MHB II) media (Oxoid) and added to a two-fold serial dilution of peptides and peptide-peptoid hybrids concentrations ranging from 1 to 64 µg/ml in 96-well plates (Nunc Internationals, Rochester, NY). The MICs were determined as a lowest concentration showing no visible growth after incubation for 18 hours at 37 °C. Experiments were performed in triplicates on two different days.

human red blood cells = type: cell-based; conditions: for EC50: red cells of human, 1 h
Protocol: (§3) Briefly, two-fold serial dilutions (2.35 to 150 μM) of compounds in phosphate buffer saline (PBS) were mixed with equal volume of 0.5% v/v suspension of fresh human red blood cells (RBC) in the same buffer. After 1 h incubation at 37 °C, plates were centrifuged and aliquots of the supernatants were transferred to clear 96-well plates. Absorbance at 414 nm was measured and normalized using a negative (PBS, 0%) and a positive (melittin, 100%) control. The EC10 and EC50 are concentrations at which 10% and 50% of RBC were lysed, respectively, as interpolated graphically by the y-axis intersection of the plotted data.

[1] = type: cell-based, human; conditions: human
Protocol: as §3

MSSA (ATCC 29213) = type: cell-based, Staphylococcus aureus; conditions: ATCC 29213, 18 h
Protocol: as §1, §2

P. aeruginosa (26314) = type: cell-based, Pseudomonas aeruginosa; conditions: 26314, 18 h
Protocol: Activity of B1 was tested on […]. aeruginosa isolates and […]. pseudintermedius isolates (including 7 MRSP) that had been isolated in the diagnostic laboratory Sund Vet Diagnostik (University of Copenhagen) from various infections in dogs between 2009 and 2011. Representative […], and P. aeruginosa (26314) were used for testing the first set of B1 analogues. For antibacterial spectrum the following strains were used: Corynebacterium auriscanis, 31551, (54 C6, dog, ear, 2013); Enterococcus faecalis, 27404, (17 C7, dog, wound, 2011); Enterococcus faecium, 30951, (24 C1, dog, ear, 2013); Streptococcus canis, 26740-1, (14 H1, dog, ear, 2010); Staphylococcus aureus, 27266, (16 G9, dog, skin, 2010); Staphylococcus aureus, 27266, (16 G9, dog, skin, 2010); Staphylococcus pseudintermedius 22963, (3 B9, dog, 2007). Acinetobacter baumannii, 27065, (16 D1, dog, wound, 2010); E. coli, 30235, 23 A6, dog, wound, 2012; Klebsiella pneumoniae, 26233, (11 H5, dog, wound, 2010); Pasteurella canis, 31096, (24 C8, dog, skin, 2013); Proteus mirabilis, 25178, (9 A4, dog, ear, 2009); Pseudomonas aeruginosa 26314, 12 C5, dog, urine, 2010). MIC determination was performed by broth microdilution according to the Clinical and Laboratory Standard Institute (CLSI, […]-A3, 2008)[62]. In brief, each bacterial strain was diluted to concentration of 5 × 10^5 CFU/mL in Mueller Hinton broth II (MHB II) media (Oxoid) and added to a two-fold serial dilution of peptides and peptide-peptoid hybrids concentrations ranging from 1 to 64 μg/ml in 96-well plates (Nunc Internationals, Rochester, NY). The MICs were determined as a lowest concentration showing no visible growth after incubation for 18 hours at 37 °C. Experiments were performed in triplicates on two different days.

Row | EC50 (human red blood cells) [µM] | Structure (SMILES) | Minimum Inhibitory Concentration MRSP C22963 (MRSP C22963) [µg/mL] | Haemolysis EC10 (human red blood cells) [µM] | hemolysis at 1 h, 150 µM [1] [%] | Minimum Inhibitory Concentration MSSA (ATCC 29213) (MSSA (ATCC 29213)) [µg/mL] | Minimum Inhibitory Concentration P. aeruginosa (26314) (P. aeruginosa (26314)) [µg/mL]
1 | – | CCCCN(CC(=O)N[C@@H](CCCCN)C(=O)N[C@@H](CCCCN)C(=O)N[C@@H](CCCCN)C(N)=O)C(=O)CN(Cc1cccc2ccccc12)C(=O)CN(Cc1ccccc1)C(=O)CNCc1cccc2ccccc12 [Compound 4, (N1-Nal)Gly-(NPhe)Gly-(N1-Nal)Gly-(NBu)Gly-Lys-Lys-Lys] (H-[N(1-naphthylmethyl)Gly][Nphe][N(1-naphthylmethyl)Gly][NBuGly]KKK-NH2; N-terminus assumed) | 8 | 54 | 24 | 16 | 32
2 | 58 | CC(C)C[C@H](NC(=O)[C@H](CCCCN)NC(=O)[C@@H](N)CCCCN)C(=O)N[C@@H](CCCCN)C(=O)N[C@@H](Cc1cccc2ccccc12)C(=O)N[C@@H](Cc1ccccc1)C(=O)N[C@@H](Cc1cccc2ccccc12)C(N)=O [Compound 6, Lys-Lys-Leu-Lys-(1-Nal)Ala-Phe-(1-Nal)Ala] (H-KKLK[1Nal]F[1Nal]-NH2; N-terminus assumed) | 8 | 5 | 96 | 32 | 8
3 | 140 | CC(C)C[C@H](NC(=O)[C@H](CCCCN)NC(=O)[C@H](CCCCN)NC(=O)[C@@H](N)CCCCN)C(=O)N[C@@H](Cc1cccc2ccccc12)C(=O)N[C@@H](Cc1ccccc1)C(=O)N[C@@H](Cc1cccc2ccccc12)C(N)=O [Compound 7, Lys-Lys-Lys-Leu-(1-Nal)Ala-Phe-(1-Nal)Ala] (H-KKKL[1Nal]F[1Nal]-NH2; N-terminus assumed) | 8 | 8 | 55 | 16 | 16
4 | – | CC(C)C[C@H](NC(=O)[C@H](CCCCN)NC(=O)[C@@H](N)CCCCN)C(=O)N[C@@H](CCCCN)C(=O)N[C@@H](Cc1ccc2ccccc2c1)C(=O)N[C@@H](Cc1ccccc1)C(=O)N[C@@H](Cc1ccc2ccccc2c1)C(N)=O [Compound 8, Lys-Lys-Leu-Lys-(2-Nal)Ala-Phe-(2-Nal)Ala] (H-KKLK[2Nal]F[2Nal]-NH2; N-terminus assumed) | 8 | 56 | 34 | 16 | 32
5 | – | CC(C)C[C@H](NC(=O)[C@H](CCCCN)NC(=O)[C@H](CCCCN)NC(=O)[C@@H](N)CCCCN)C(=O)N[C@@H](Cc1ccc2ccccc2c1)C(=O)N[C@@H](Cc1ccccc1)C(=O)N[C@@H](Cc1ccc2ccccc2c1)C(N)=O [Compound 9, Lys-Lys-Lys-Leu-(2-Nal)Ala-Phe-(2-Nal)Ala] (H-KKKL[2Nal]F[2Nal]-NH2; N-terminus assumed) | 8 | 46 | 39 | 16 | 16
6 | – | CC(C)C[C@H](NC(=O)[C@H](Cc1ccc2ccccc2c1)NC(=O)[C@H](Cc1ccccc1)NC(=O)[C@@H](N)Cc1ccc2ccccc2c1)C(=O)N[C@@H](CCCCN)C(=O)N[C@@H](CCCCN)C(=O)N[C@@H](CCCCN)C(N)=O [Compound 13, (2-Nal)Ala-Phe-(2-Nal)Ala-Leu-Lys-Lys-Lys] (H-[2Nal]F[2Nal]LKKK-NH2; N-terminus assumed) | 8 | 110 | 15 | 32 | >64
7 | 128 | CC(C)C[C@@H](NC(=O)[C@H](CCCCN)NC(=O)[C@@H](N)CCCCN)C(=O)N[C@@H](CCCCN)C(=O)N[C@H](Cc1cccc2ccccc12)C(=O)N[C@H](Cc1ccccc1)C(=O)N[C@H](Cc1cccc2ccccc12)C(N)=O [Compound 14, Lys-Lys-leu-Lys-(1-Nal)ala-phe-(1-Nal)ala] (H-KK[dL]K[d1Nal][dF][d1Nal]-NH2; N-terminus assumed) | 4 to 8 | 28 | 58 | 16 | 16 to 32
8 | 40 | CC(C)C[C@@H](NC(=O)[C@H](CCCCN)NC(=O)[C@H](CCCCN)NC(=O)[C@@H](N)CCCCN)C(=O)N[C@H](Cc1cccc2ccccc12)C(=O)N[C@H](Cc1ccccc1)C(=O)N[C@H](Cc1cccc2ccccc12)C(N)=O [Compound 15, Lys-Lys-Lys-leu-(1-Nal)ala-phe-(1-Nal)ala] (H-KKK[dL][d1Nal][dF][d1Nal]-NH2; N-terminus assumed) | 2 | 8 | 88 | 8 | 8
9 | 118 | CC(C)C[C@@H](NC(=O)[C@H](CCCCN)NC(=O)[C@H](CCCCN)NC(=O)[C@@H](N)CCCCN)C(=O)N[C@H](Cc1ccc2ccccc2c1)C(=O)N[C@H](Cc1ccccc1)C(=O)N[C@H](Cc1ccc2ccccc2c1)C(N)=O [Compound 16, Lys-Lys-Lys-leu-(2-Nal)ala-phe-(2-Nal)ala] (H-KKK[dL][d2Nal][dF][d2Nal]-NH2; N-terminus assumed) | 2 to 4 | 18 | 60 | 8 to 16 | 32
10 | – | CC(C)C[C@@H](NC(=O)[C@H](CCCCN)NC(=O)[C@@H](N)CCCCN)C(=O)N[C@@H](CCCCN)C(=O)N[C@H](Cc1ccc2ccccc2c1)C(=O)N[C@H](Cc1ccccc1)C(=O)N[C@H](Cc1ccc2ccccc2c1)C(N)=O [Compound 17, Lys-Lys-leu-Lys-(2-Nal)ala-phe-(2-Nal)ala] (H-KK[dL]K[d2Nal][dF][d2Nal]-NH2; N-terminus assumed) | 8 | 8 | 40 | 16 | 32
11 | – | CC(C)C[C@@H](NC(=O)[C@H](CCCCN)NC(=O)[C@@H](Cc1cccc2ccccc12)NC(=O)[C@@H](Cc1ccccc1)NC(=O)[C@H](N)Cc1cccc2ccccc12)C(=O)N[C@@H](CCCCN)C(=O)N[C@@H](CCCCN)C(N)=O [Compound 20, (1-Nal)ala-phe-(1-Nal)ala-Lys-leu-Lys-Lys] (H-[d1Nal][dF][d1Nal]K[dL]KK-NH2; N-terminus assumed) | 16 | – | < 8 | 32 to 64 | >64
12 | – | CC(C)C[C@@H](NC(=O)[C@@H](Cc1cccc2ccccc12)NC(=O)[C@@H](Cc1ccccc1)NC(=O)[C@H](N)Cc1cccc2ccccc12)C(=O)N[C@@H](CCCCN)C(=O)N[C@@H](CCCCN)C(=O)N[C@@H](CCCCN)C(N)=O [Compound 21, (1-Nal)ala-phe-(1-Nal)ala-leu-Lys-Lys-Lys] (H-[d1Nal][dF][d1Nal][dL]KKK-NH2; N-terminus assumed) | 16 | – | < 8 | 32 | 32
